Test results as given in patent US4642341A, “Carbapenem antibiotics” (priority 1985, dated 1987).
≈ marks a conversion by molar mass, not a printed value. Where two headings read alike, the source gives them in different places.

Key:
[1] = tested on: S. pneumoniae A-9585; assay: Minimum Inhibitory Concentration, tube dilution; format: cell-based; conditions: Streptococcus pneumoniae, A9585, overnight 37° C.; table 6
[2] = tested on: S. pyogenes A-9604; assay: Minimum Inhibitory Concentration, tube dilution; format: cell-based; conditions: Streptococcus pyogenes, A9604, overnight 37° C.; table 6
[3] = tested on: S. aureus A-9537; assay: Minimum Inhibitory Concentration, tube dilution; format: cell-based; conditions: Staphylococcus aureus, table 6, read-out: MIC
[4] = tested on: S. aureus A-9606 (Pen-res.); assay: Minimum Inhibitory Concentration, tube dilution; format: cell-based; conditions: Staphylococcus aureus, Pen-res; table 6
[5] = tested on: S. aureus A15097 (Meth-res.); assay: Minimum Inhibitory Concentration, tube dilution; format: cell-based; conditions: Staphylococcus aureus, table 6
[6] = tested on: S. faecalis A20688; assay: Minimum Inhibitory Concentration, tube dilution; format: cell-based; conditions: Enterococcus faecalis, A20688, overnight 37° C.; table 6; read-out: MIC
[7] = tested on: E. coli A15119; assay: Minimum Inhibitory Concentration, tube dilution; format: cell-based; conditions: Escherichia coli, A15119, overnight 37° C.; table 6
[8] = tested on: E. coli A20341-1; assay: Minimum Inhibitory Concentration, tube dilution; format: cell-based; conditions: Escherichia coli, A203411, overnight 37° C.; table 6
[9] = tested on: K. pneumoniae A20468; assay: Minimum Inhibitory Concentration, tube dilution; format: cell-based; conditions: Klebsiella pneumoniae
[10] = tested on: P. mirabilis A-9900; assay: Minimum Inhibitory Concentration, tube dilution; format: cell-based; conditions: Proteus mirabilis, A9900, overnight 37° C.; table 6
[11] = tested on: P. vulgaris A21559; assay: Minimum Inhibitory Concentration, tube dilution; format: cell-based; conditions: Proteus vulgaris, A21559, overnight 37° C.; table 6
[12] = tested on: P. rettgeri A22424; assay: Minimum Inhibitory Concentration, tube dilution; format: cell-based; conditions: Providencia rettgeri, overnight 37° C., table 6, read-out: MIC
[13] = tested on: E. cloacae A-9656; assay: Minimum Inhibitory Concentration, tube dilution; format: cell-based; conditions: Enterobacter cloacae, A9656; overnight 37° C.; table 6
[14] = tested on: P. aeruginosa A-9843A; assay: Minimum Inhibitory Concentration, tube dilution; format: cell-based; conditions: Pseudomonas aeruginosa, A9843A, overnight 37° C.; table 6; read-out: MIC
[15] = tested on: P. aeruginosa A21213; assay: Minimum Inhibitory Concentration, tube dilution; format: cell-based; conditions: Pseudomonas aeruginosa
[16] = tested on: H. influenzae A-9833; assay: Minimum Inhibitory Concentration, tube dilution; format: cell-based; conditions: Haemophilus influenzae, A9833; overnight 37° C.; table 6; read-out: MIC
[17] = tested on: H. influenzae A21518; assay: Minimum Inhibitory Concentration, tube dilution; format: cell-based; conditions: Haemophilus influenzae, overnight 37° C., table 6
[18] = tested on: B. fragilis A22862; assay: Minimum Inhibitory Concentration, tube dilution; format: cell-based; conditions: Bacteroides fragilis, overnight 37° C., table 6
[19] = tested on: B. fragilis A22696; assay: Minimum Inhibitory Concentration, tube dilution; format: cell-based; conditions: Bacteroides fragilis
[20] = tested on: E. cloacae A9659; assay: Minimum Inhibitory Concentration, tube dilution; format: cell-based; conditions: Enterobacter cloacae, A9659, overnight 37° C.; table 6; read-out: MIC
[21] = tested on: M. morganii A15153; assay: Minimum Inhibitory Concentration, tube dilution; format: cell-based; conditions: Morganella morganii, A15153, overnight 37° C.; table 6
[22] = tested on: P. aeruginosa A20481; assay: Protective effect, intramuscular treatment of infected mice (table 7); format: in vivo; conditions: Pseudomonas aeruginosa, A20481, im; i.m. 1 and 3.5 hours post-infection; ~1×10^5 organisms i.p.; read-out: PD50 /treatment
Protocol: (§1) Drugs were administered i.m. 0 to 2 hours post-infection (A9606) or 1 and 3.5 hours post-infection for the others.

[23] = tested on: P. mirabilis A9900; assay: as above; format: in vivo; conditions: Proteus mirabilis, A9900, im; i.m. 1 and 3.5 hours post-infection; ~1×10^7 organisms i.p.; read-out: PD50 /treatment
Protocol: as §1

[24] = tested on: S. aureus A9606; assay: as above; format: in vivo; conditions: Staphylococcus aureus, A9606, im; i.m. 0 to 2 hours post-infection; ~1×10^9 organisms i.p.; read-out: PD50 /treatment
Protocol: as §1

[25] = tested on: P. aeruginosa A9843A; assay: animal or person; format: in vivo, mice; conditions: Pseudomonas aeruginosa, in Mus musculus, im, 3.5 h, read-out: PD50 /treatment
Protocol: as §1

[26] = Pharmacokinetic parameters in the mouse after intramuscular dose; format: in vivo, mice; conditions: im, 20 mg/kg; for AUC / Cmax / half-life: blood; for half-life: read-out: T1/2 (blood); for dose excreted: urine, read-out: Urine Recovery
Excerpt: Also shown is the urinary recovery in the mice.
Compounds were solubilized in 0.1 M phosphate buffer pH 7.

[27] = Half-life in phosphate buffer pH 7.4; format: physicochemical; conditions: phosphate buffer
Protocol: To a solution of p-nitrobenzyl 3-[2-(1-pyridinium)ethylthio)]-6α[1-(R)-hydroxyethyl]-7-oxo-1-azabicyclo(3.2.0)hept-2-ene-carboxylate diphenylphosphate (0.16 g, 0.22 mmol) in wet tetrahydrofuran (10mL) was added ether (10mL), potassium phosphate monobasic-sodium hydroxide buffer pH 7.4 (16 mL, 0.05 M) and 10% palladium on charcoal (0.16 g). The resulting mixture was hydrogenated under 40 psi for 1 h at 25° C. The two phases were separated and the organic phase was extracted with water (2×3 mL). The aqeuous solutions were combined, washed with ether (2×10 ml) and poured on top of a column (1.5×6.2 cm) pf μ-bondapak C-18 after the traces of organic solvents have been removed under vacuum. Elution of the column with water gave after lyophylization of the appropriate fractions a yellowish powder 0.062 g (84%), ir (KBr) .nu.max : 3700-3000 (OH), 1755 (C--O of β-lactam), 1630 (pyridinium), 1590 cm^-1 (carboxylate), ^1 Hmr (D2 O): 1.22 (3H, d, J=6.4 Hz, CH3 CHOH), 2.92 (d, J=9.1 Hz, H-4), 2.97 (d, J=9.1 Hz, H-4), 3.20 (dd, J=2.5 Hz, J=6.1 Hz, H-6), 3.44 (t, J=6.0 Hz, CH2 S), 3.93 (dd, J=9.1 Hz, J=2.5 Hz, H-5), 4.82 (t, J=6.0 Hz, CH2 N^+), 8.04 (m, Hm of pyridinium), 8.5 (m, Hp of pyridinium), 8.82 (dd, J=3.2. Hz, J=1.1 Hz, Ho of pyridinium), uv (H2 O) λ max : 259 (ε5800), 296 (ε7030) mμ, .tau.1/2 =13.5 h (measured at a concentration of 10^-4 M in phosphate buffer pH 7.4 at 36.8° C.).

[28] = tested on: S. marcescens A20019; assay: Minimum Inhibitory Concentration, tube dilution; format: cell-based; conditions: Serratia marcescens, A20019, overnight 37° C.; table 6

SMILES | MIC [1] | MIC [2] | MIC ([3]; A9537, overnight 37° C.) | MIC [4] | MIC [5] | MIC [6] | MIC [7] | MIC [8] | MIC [10] | MIC [11] | MIC [14] | MIC [16] | MIC [17] | MIC [18] | MIC [21] | ED50 [22] | ED50 [23] | ED50 [24] | ED50 [25] | AUC [26] | also measured
Cc1cc(C)c[n+](CCSC2=C(C(=O)[O-])N3C(=O)[C@H]([C@@H](C)O)[C@H]3C2)c1 [Example 4] | 0.03 mg/L (≈ 0.0828 µM) | 0.03 mg/L (≈ 0.0828 µM) | 0.03 mg/L (≈ 0.0828 µM) | 0.5 mg/L (≈ 1.38 µM) | > 63 mg/L | 0.5 mg/L (≈ 1.38 µM) | 0.06 mg/L (≈ 0.166 µM) | 0.06 mg/L (≈ 0.166 µM) | 0.25 mg/L (≈ 0.69 µM) | 0.03 mg/L (≈ 0.0828 µM) | 32 mg/L (≈ 88.3 µM) | > 32 mg/L | > 32 mg/L | 0.06 mg/L (≈ 0.166 µM) | 0.25 mg/L (≈ 0.69 µM) | > 5 mg/kg | ~22 mg/kg | 0.4 mg/kg | 5 mg/kg | 5.5 µg·h/mL | MIC ([3]; A9537, 50% serum): 0.03 mg/L (≈ 0.0828 µM); MIC ([9]; A20468, overnight 37° C., table 6, read-out: MIC): 0.25 mg/L (≈ 0.69 µM); MIC [12]: 0.5 mg/L (≈ 1.38 µM); MIC [13]: 0.25 mg/L (≈ 0.69 µM); MIC ([15]; A21213, overnight 37° C., table 6, read-out: MIC): 2 mg/L (≈ 5.52 µM); MIC ([19]; overnight 37° C., table 6, read-out: MIC): 0.25 mg/L (≈ 0.69 µM); MIC [20]: 0.25 mg/L (≈ 0.69 µM); Cmax [26]: 11.4 µg/mL; half-life [26]: 0.173 h; dose excreted [26]: 49 ± 6%; half-life at 100 µM ([27]; pH 7.4, τ1/2 (half-life)): 16.9 h
C[C@@H](O)[C@H]1C(=O)N2C(C(=O)[O-])=C(SCC[n+]3ccc(CO)cc3)C[C@H]12 [Example 6, (5R, 6S)-3-[2-(4-hydroxymethylpyridinio)ethylthio]-6-[1-(R)-hydroxyethyl]-7-oxo-1-azabicyclo[3.2.0]hept-2-ene-2-carboxylate] | 0.03 mg/L (≈ 0.0823 µM) | 0.03 mg/L (≈ 0.0823 µM) | 0.03 mg/L (≈ 0.0823 µM) | 0.03 mg/L (≈ 0.0823 µM) | > 63 mg/L | 1 mg/L (≈ 2.74 µM) | 0.03 mg/L (≈ 0.0823 µM) | 0.03 mg/L (≈ 0.0823 µM) | 0.06 mg/L (≈ 0.165 µM) | 0.03 mg/L (≈ 0.0823 µM) | 4 mg/L (≈ 11 µM) | > 32 mg/L | > 32 mg/L | 0.06 mg/L (≈ 0.165 µM) | 0.03 mg/L (≈ 0.0823 µM) | 0.6 mg/kg | ~16 mg/kg | ~3 mg/kg | 0.9 mg/kg | 7.7 µg·h/mL | MIC ([9]; A20468): 0.5 mg/L (≈ 1.37 µM); MIC [28]: 0.06 mg/L (≈ 0.165 µM); MIC ([15]; A21213): 0.5 mg/L (≈ 1.37 µM); MIC [19]: 0.5 mg/L (≈ 1.37 µM); Cmax [26]: 15.2 µg/mL; half-life [26]: 0.167 h; dose excreted [26]: 38 ± 13%; half-life ([27]; pH 7.4, t1/2 (half-life)): 14.5 h
